# Source: patent publication US20030104507A1, “Method for detection of ATP” (priority 2001, published 2003)
# Legend:
# [1] = test system: LucPpe2m146; assay: Stability of reagent composition with LucPpe2m146 and detergent (RT, pH 7.0); format: biochemical, Photuris pennsylvanica
# Excerpt: (§1) The detergents used for inhibition of endogenous ATPase activity in a sample also affect activity of luciferase. […] It is ultimately the extended stability of a reagent composition, comprising an ATPase inhibitor and a luciferase enzyme, which provides a composition useful for measuring ATP, in a sample or samples, over an extended period of time.
# (§2) In this experiment, the stability of a reagent composition comprising wild type LucPpy was compared to the stability of a reagent composition comprising LucPpe2m146 at about 23° C. (room temperature). The various reagent compositions had varying detergent concentrations.
# (§3) Two solutions were created as listed below. One contained the luciferase, luciferin, MgSO4, and buffer (reagent composition). The other solution contained media plus ATP (media solution).
# (§4) 50 μg/ml enzyme (LucPpy is Promega catalog #E170A)
# (§5) Detergent (at various concentrations, see table below)
# (§6) For each reagent composition, all ingredients except the luciferase enzyme were assembled; the enzyme was then added immediately before the first luminescence reading was taken. Immediately after addition of enzyme to each reagent composition and for various timepoints thereafter, 100 μl aliquots of the reagent composition were added to wells of a 96-well microtitre luminometer plate in triplicate. To these were added 100 μl Media Solution containing the ATP. Luminescence was then immediately read on a Dynex MLX microtitreplate luminometer, 0.5 second reads per well. The average relative light unit values as well as the reaction half lives are listed below in Table I and the percent of original luminescence remaining at each timepoint is listed in Table J below. The timepoint at the top of the column indicates the time at which the first rlu measurement for the samples in that column was read. […] Times listed in Table I are the same for Table J. The values for sulfobetaine and for CTAB were generated on different days, they are presented with the control values generated in the same experiment.
# [2] = target: T1, LucPpy (Photinus pyralis, UniProt P08659); assay: Stability of reagent composition with LucPpy and detergent (RT, pH 7.0); format: biochemical; details: for Half-life of Luminescence Activity: Common firefly luciferase (P. pyralis); for Average Relative Light Units / Percent of Luminescence Remaining: LucPpy
# T1 construct: purchased Promega E170A
# Excerpt: as §1, §2, §3, §4, §5, §6
structure (smiles),measurement,setting,value
"CCCCCCCCCCCC[N+](C)(C)Cc1ccccc1.[Br-] [BDDABr, Benzyldimethyldodecylammonium bromide]",Average Relative Light Units,"[1]; LucPpe2m146, 0.02%, 1.0 min (head r67)",26548.60 rlu
same,Percent of Luminescence Remaining,"[1]; LucPpe2m146, 0.02%, 1.0 min (times of Table I r67)",100.00%
same,Average Relative Light Units,"[1]; LucPpe2m146, 0.02%, 34 min (head r67)",26272.87 rlu
same,Percent of Luminescence Remaining,"[1]; LucPpe2m146, 0.02%, 34 min (times of Table I r67)",98.96%
same,Average Relative Light Units,"[1]; LucPpe2m146, 0.02%, 65 min (head r67)",25766.43 rlu
same,Percent of Luminescence Remaining,"[1]; LucPpe2m146, 0.02%, 65 min (times of Table I r67)",97.05%
same,Average Relative Light Units,"[1]; LucPpe2m146, 0.02%, 115 min (head r67)",24155.00 rlu
same,Percent of Luminescence Remaining,"[1]; LucPpe2m146, 0.02%, 115 min (times of Table I r67)",90.98%
same,Average Relative Light Units,"[1]; LucPpe2m146, 0.02%, 175 min (head r67)",25891.70 rlu
same,Percent of Luminescence Remaining,"[1]; LucPpe2m146, 0.02%, 175 min (times of Table I r67)",97.53%
same,Average Relative Light Units,"[1]; LucPpe2m146, 0.02%, 238 min (head r67)",24959.1 rlu
same,Percent of Luminescence Remaining,"[1]; LucPpe2m146, 0.02%, 238 min (times of Table I r67)",94.01%
same,Average Relative Light Units,"[1]; LucPpe2m146, 0.02%, 286 min (head r67)",24510.1 rlu
same,Percent of Luminescence Remaining,"[1]; LucPpe2m146, 0.02%, 286 min (times of Table I r67)",92.32%
same,Average Relative Light Units,"[1]; LucPpe2m146, 0.1%, 1.0 min (head r54)",29.71 rlu
same,Percent of Luminescence Remaining,"[1]; LucPpe2m146, 0.1%, 1.0 min (times of Table I r54)",100.00%
same,Average Relative Light Units,"[1]; LucPpe2m146, 0.1%, 34 min (head r54)",66.09 rlu
same,Percent of Luminescence Remaining,"[1]; LucPpe2m146, 0.1%, 34 min (times of Table I r54)",222.47%
same,Average Relative Light Units,"[1]; LucPpe2m146, 0.1%, 65 min (head r54)",62.19 rlu
same,Percent of Luminescence Remaining,"[1]; LucPpe2m146, 0.1%, 65 min (times of Table I r54)",209.32%
same,Average Relative Light Units,"[1]; LucPpe2m146, 0.1%, 115 min (head r54)",45.18 rlu
same,Percent of Luminescence Remaining,"[1]; LucPpe2m146, 0.1%, 115 min (times of Table I r54)",152.09%
same,Average Relative Light Units,"[1]; LucPpe2m146, 0.1%, 175 min (head r54)",33.89 rlu
same,Percent of Luminescence Remaining,"[1]; LucPpe2m146, 0.1%, 175 min (times of Table I r54)",114.06%
same,Average Relative Light Units,"[1]; LucPpe2m146, 0.1%, 238 min (head r54)",34.46 rlu
same,Percent of Luminescence Remaining,"[1]; LucPpe2m146, 0.1%, 238 min (times of Table I r54)",115.98%
same,Average Relative Light Units,"[1]; LucPpe2m146, 0.1%, 286 min (head r54)",126.90 rlu
same,Percent of Luminescence Remaining,"[1]; LucPpe2m146, 0.1%, 286 min (times of Table I r54)",427.13%
same,Average Relative Light Units,"[1]; LucPpe2m146, 0.5%, 15 min (head r41)",2.040 rlu
same,Percent of Luminescence Remaining,"[1]; LucPpe2m146, 0.5%, 15 min (times of Table I r41)",100.00%
same,Average Relative Light Units,"[1]; LucPpe2m146, 0.5%, 72 min (head r41)",1.140 rlu
same,Percent of Luminescence Remaining,"[1]; LucPpe2m146, 0.5%, 72 min (times of Table I r41)",55.90%
same,Average Relative Light Units,"[1]; LucPpe2m146, 0.5%, 124 min (head r41)",0.998 rlu
same,Percent of Luminescence Remaining,"[1]; LucPpe2m146, 0.5%, 124 min (times of Table I r41)",48.93%
same,Average Relative Light Units,"[1]; LucPpe2m146, 0.5%, 190 min (head r41)",0.899 rlu
same,Percent of Luminescence Remaining,"[1]; LucPpe2m146, 0.5%, 190 min (times of Table I r41)",44.07%
same,Average Relative Light Units,"[1]; LucPpe2m146, 0.5%, 251 min (head r41)",1.042 rlu
same,Percent of Luminescence Remaining,"[1]; LucPpe2m146, 0.5%, 251 min (times of Table I r41)",51.10%
same,Half-life of Luminescence Activity,[2]; conc. 0.100,no activity
same,Half-life of Luminescence Activity,[2]; conc. 0.500,no activity
same,Average Relative Light Units,"[2]; 0.02%, 0.75 min (head r32)",2894.700 rlu
same,Percent of Luminescence Remaining,"[2]; 0.02%, 0.75 min (times of Table I r32)",100.00%
same,Average Relative Light Units,"[2]; 0.02%, 38 min (head r32)",0.035 rlu
same,Percent of Luminescence Remaining,"[2]; 0.02%, 38 min (times of Table I r32)",0.00%
same,Average Relative Light Units,"[2]; 0.02%, 70 min (head r32)",0.015 rlu
same,Percent of Luminescence Remaining,"[2]; 0.02%, 70 min (times of Table I r32)",0.00%
same,Average Relative Light Units,"[2]; 0.02%, 94 min (head r32)",0.016 rlu
same,Average Relative Light Units,"[2]; 0.02%, 122 min (head r32)",0.011 rlu
same,Average Relative Light Units,"[2]; 0.1%, 0.75 min (head r18)",0.007 rlu
same,Percent of Luminescence Remaining,"[2]; 0.1%, 0.75 min (times of Table I r18)",100.00%
same,Average Relative Light Units,"[2]; 0.5%, 0.75 min (head r5)",0.001 rlu
same,Percent of Luminescence Remaining,"[2]; 0.5%, 0.75 min (times of Table I r5)",100.00%
